Reference: ChEMBL document CHEMBL1764981, “Coumarin-purine ribofuranoside conjugates as new agents against hepatitis C virus” (J Med Chem, 2011)
≈ marks a conversion by molar mass, not a printed value. Calls of active or inactive are those of the source. No cut-off for these calls is given here.

How the values were obtained:
[1] = Selectivity index, ratio of CC50 for human Huh5-2 cells to EC50 for Hepatitis C virus; type: toxicity, cell-based, Huh-5-2; settings: read-out: Ratio CC50/EC50
Hepatitis C virus [2] = experiment: Antiviral activity against Hepatitis C virus infected in human Huh5-2 cells assessed as […] by viral RNA (luciferase) assay; type: functional, organism-based, Hepacivirus hominis; settings: Huh-5-2
Huh-5-2 = experiment: Cytotoxicity against human Huh5-2 cells assessed as microscopically detectable alteration in cell morphology by cytostatic determination assay; type: functional
[3] = Solubility of compound in water by HPLC-UV method; type: physicochemical
Hepatitis C virus [4] = experiment: Antiviral activity against Hepatitis C virus; type: functional, organism-based; settings: Hepacivirus hominis

SMILES | EC50 (Hepatitis C virus [2]) [µM] | solubility [3] [µg/mL] | selectivity ratio [1] | CC50 (Huh-5-2) [µM] | Activity (Hepatitis C virus [4])
COc1cccc2cc(CSc3nc4cncnc4n3[C@@H]3O[C@H](CO)[C@@H](O)[C@H]3O)c(=O)oc12 | 9.5 | 224 (≈ 474 µM) | 5 | 47 | 
Nc1ncnc2c1nc(SCc1cc3cc(Br)ccc3oc1=O)n2[C@@H]1O[C@H](CO)[C@@H](O)[C@H]1O | 27 |  | 1.5 | 41 | 
CC(=O)OC[C@H]1O[C@@H](n2c(=S)n([C@@H]3O[C@H](COC(C)=O)[C@@H](OC(C)=O)[C@H]3OC(C)=O)c3ncncc32)[C@H](OC(C)=O)[C@@H]1OC(C)=O | 66 |  | > 1.1 | > 75 | inactive
CC(=O)OC[C@H]1O[C@@H](n2c(SCc3cc4cc(C)ccc4oc3=O)nc3cncnc32)[C@H](OC(C)=O)[C@@H]1OC(C)=O | 7.7 |  | 2.1 | 16 | 
COc1cccc2cc(CSc3nc4c(N)ncnc4n3[C@@H]3O[C@H](CO)[C@@H](O)[C@H]3O)c(=O)oc12 | 43 |  | > 2.4 | > 103 | 
Nc1ncnc2c1nc(SCc1cc3ccccc3oc1=O)n2[C@@H]1O[C@H](CO)[C@@H](O)[C@H]1O | 28 |  | 1.7 | 49 | 
Cc1ccc2oc(=O)c(CSc3nc4cncnc4n3[C@@H]3O[C@H](CO)[C@@H](O)[C@H]3O)cc2c1 | 9.2 |  | 5.1 | 46 | 
Nc1ncnc2c1nc(SCc1cc3cc(Br)cc(Br)c3oc1=O)n2[C@@H]1O[C@H](CO)[C@@H](O)[C@H]1O | 26 |  | 1.4 | 36 | 
CC(=O)OC[C@H]1O[C@@H](n2c(SCc3cc4cc(Br)ccc4oc3=O)nc3cncnc32)[C@H](O)[C@@H]1O | 8.3 |  | 3.8 | 31 | 
CC(=O)OC[C@H]1O[C@@H](n2c(SCc3cc4ccccc4oc3=O)nc3cncnc32)[C@H](O)[C@@H]1O | > 8.9 |  | < 0.98 | 8.7 | 
O=c1oc2ccc(F)cc2cc1CSc1nc2cncnc2n1[C@@H]1O[C@H](CO)[C@@H](O)[C@H]1O | 7.4 |  | 4.9 | 36 | 
CC(=O)OC[C@H]1O[C@@H](n2c(=S)[nH]c3cncnc32)[C@H](OC(C)=O)[C@@H]1OC(C)=O | > 122 |  |  | > 122 | inactive
COc1cccc2cc(CSc3nc4cncnc4[nH]3)c(=O)oc12 |  | 31.6 (≈ 92.8 µM) | 4.8 | 94 | 
OC[C@H]1O[C@@H](n2c(S)nc3cncnc32)[C@H](O)[C@@H]1O | > 176 |  |  | > 176 | 

Continued by falling EC50 (Hepatitis C virus [2]), values first:

EC50 (Hepatitis C virus [2]) [µM] | solubility [3] [µg/mL] | SMILES | selectivity ratio [1] | CC50 (Huh-5-2) [µM] | Activity (Hepatitis C virus [4])
6.8 |  | CC(=O)OC[C@H]1O[C@@H](n2c(SCc3cc4cc(Br)cc(Br)c4oc3=O)nc3cncnc32)[C@H](O)[C@@H]1O | 1 | 7 | 
6.6 |  | CC(=O)OC[C@H]1O[C@@H](n2c(SCc3cc4ccccc4oc3=O)nc3cncnc32)[C@H](OC(C)=O)[C@@H]1OC(C)=O | 5.9 | 39 | 
6.1 |  | CC(=O)OC[C@H]1O[C@@H](n2c(SCc3cc4cc(F)ccc4oc3=O)nc3cncnc32)[C@H](OC(C)=O)[C@@H]1OC(C)=O | 1.2 | 7.6 | 
5.9 |  | O=c1oc2c(Br)cc(Br)cc2cc1CSc1nc2cncnc2n1[C@@H]1O[C@H](CO)[C@@H](O)[C@H]1O | 6.1 | 36 | 
5.8 | 216 (≈ 421 µM) | COc1cccc2cc(CSc3nc4cncnc4n3[C@@H]3O[C@H](COC(C)=O)[C@@H](O)[C@H]3O)c(=O)oc12 | 1.9 | 11 | 
5.5 |  | O=c1oc2ccccc2cc1CSc1nc2cncnc2n1[C@@H]1O[C@H](CO)[C@@H](O)[C@H]1O | 9.1 | 50 | 
4.9 |  | CC(=O)OC[C@H]1O[C@@H](n2c(SCc3cc4cc(Br)ccc4oc3=O)nc3cncnc32)[C@H](OC(C)=O)[C@@H]1OC(C)=O | 1.4 | 6.7 | 
4.9 |  | CC(=O)OC[C@H]1O[C@@H](n2c(SCc3cc4cc(Br)cc(Br)c4oc3=O)nc3cncnc32)[C@H](OC(C)=O)[C@@H]1OC(C)=O | 1.2 | 6 | 
4.6 |  | CC(=O)OC[C@H]1O[C@@H](n2c(SCc3cc4cc(C)ccc4oc3=O)nc3cncnc32)[C@H](O)[C@@H]1O | 3.5 | 16 | 
4.3 |  | O=c1oc2ccc(Cl)cc2cc1CSc1nc2cncnc2n1[C@@H]1O[C@H](CO)[C@@H](O)[C@H]1O | 8.5 | 37 | 
3.8 |  | CC(=O)OC[C@H]1O[C@@H](n2c(SCc3cc4cc(F)ccc4oc3=O)nc3cncnc32)[C@H](O)[C@@H]1O | 2.3 | 8.6 | 
3.2 |  | CC(=O)OC[C@H]1O[C@@H](n2c(SCc3cc4cc(Cl)ccc4oc3=O)nc3cncnc32)[C@H](OC(C)=O)[C@@H]1OC(C)=O | 2.4 | 7.5 | 
2.8 |  | CC1(C)O[C@@H]2[C@H](O1)[C@H](n1c(SCc3cc4ccccc4oc3=O)nc3cncnc31)O[C@@H]2CO | 3.2 | 8.8 | 
2.3 | 78.3 (≈ 131 µM) | COc1cccc2cc(CSc3nc4cncnc4n3[C@@H]3O[C@H](COC(C)=O)[C@@H](OC(C)=O)[C@H]3OC(C)=O)c(=O)oc12 | 3.3 | 7.5 | 
2.1 |  | CC1(C)O[C@@H]2[C@H](O1)[C@H](n1c(SCc3cc4cc(Br)ccc4oc3=O)nc3cncnc31)O[C@@H]2CO | 3.6 | 7.5 | 
1.6 | 87.7 (≈ 171 µM) | COc1cccc2cc(CSc3nc4cncnc4n3[C@@H]3O[C@H](CO)[C@@H]4OC(C)(C)O[C@@H]43)c(=O)oc12 | 5.2 | 8.4 | 
